Each block holds one compound with its values, some of them ahead of it. Calls of active or inactive are those of the source. The calls are words filed in the database; no cut-off is given here.
Columns and labels:
Toll-like receptor 4 = Toll-like receptor 4 (Homo sapiens, UniProt O00206); assay: Inhibition of TLR4 (unknown origin) by sandwich ELISA method
Synovial cell [1] = assay: Antiinflammatory activity in rat synovial cells assessed as decrease in LPS-induced NF-kappaB protein expression at 1 uM by DAPI staining based immunofluorescence microscopic analysis; assay type: functional
Synovial cell [2] = assay: Inhibition of LPS-induced abnormal proliferation in rat synovial cells assessed as reduction in cell number at 1 uM; assay type: functional, cell-based
Synovial cell [3] = assay: Antiinflammatory activity in rat synovial cells assessed as decrease in LPS-induced TLR4 protein expression at 1 uM by DAPI staining based immunofluorescence microscopic analysis; assay type: functional
Synovial cell [4] = assay: Antiinflammatory activity in rat synovial cells assessed as downregulation of LPS-induced TNF-alpha production at 1 uM measured by ELISA; assay type: functional, cell-based
Synovial cell [5] = assay: Antiinflammatory activity in LPS-stimulated rat synovial cells assessed as increase in IkappaB protein expression at 1 uM by DAPI staining based immunofluorescence microscopic analysis; assay type: functional
Synovial cell [6] = assay: Antiinflammatory activity in rat synovial cells assessed as decrease in LPS-induced MyD88 protein expression at 1 uM by DAPI staining based immunofluorescence microscopic analysis; assay type: functional
Synovial cell [7] = assay: Antiinflammatory activity in rat synovial cells assessed as downregulation of LPS-induced IL-1 beta production at 1 uM measured by ELISA; assay type: functional, cell-based
Synovial cell [8] = assay: Induction of apoptosis in rat synovial cells assessed as increase in caspase-3 expression at 1 uM in presence of LPS by DAPI staining based immunofluorescence microscopic analysis; assay type: functional
Synovial cell [9] = assay: Induction of apoptosis in rat synovial cells assessed as green coloured positive apoptotic cells with nuclear pyknosis and chromatin condensation at 1 uM in presence of LPS by TUNEL staining based microscopic analysis; assay type: functional
Synovial cell [10] = assay: Antiinflammatory activity in rat synovial cells assessed as downregulation of LPS-induced IL-6 production at 1 uM measured by ELISA; assay type: functional, cell-based
Synovial cell [11] = assay: Inhibition of LPS-induced cytomorphological changes in rat synovial cells assessed as reduction in refractive ability with irregular spindle or round shaped cell body at 1 uM; assay type: functional, cell-based

Chain of Toll-like receptor 4 (O00206 whole entry): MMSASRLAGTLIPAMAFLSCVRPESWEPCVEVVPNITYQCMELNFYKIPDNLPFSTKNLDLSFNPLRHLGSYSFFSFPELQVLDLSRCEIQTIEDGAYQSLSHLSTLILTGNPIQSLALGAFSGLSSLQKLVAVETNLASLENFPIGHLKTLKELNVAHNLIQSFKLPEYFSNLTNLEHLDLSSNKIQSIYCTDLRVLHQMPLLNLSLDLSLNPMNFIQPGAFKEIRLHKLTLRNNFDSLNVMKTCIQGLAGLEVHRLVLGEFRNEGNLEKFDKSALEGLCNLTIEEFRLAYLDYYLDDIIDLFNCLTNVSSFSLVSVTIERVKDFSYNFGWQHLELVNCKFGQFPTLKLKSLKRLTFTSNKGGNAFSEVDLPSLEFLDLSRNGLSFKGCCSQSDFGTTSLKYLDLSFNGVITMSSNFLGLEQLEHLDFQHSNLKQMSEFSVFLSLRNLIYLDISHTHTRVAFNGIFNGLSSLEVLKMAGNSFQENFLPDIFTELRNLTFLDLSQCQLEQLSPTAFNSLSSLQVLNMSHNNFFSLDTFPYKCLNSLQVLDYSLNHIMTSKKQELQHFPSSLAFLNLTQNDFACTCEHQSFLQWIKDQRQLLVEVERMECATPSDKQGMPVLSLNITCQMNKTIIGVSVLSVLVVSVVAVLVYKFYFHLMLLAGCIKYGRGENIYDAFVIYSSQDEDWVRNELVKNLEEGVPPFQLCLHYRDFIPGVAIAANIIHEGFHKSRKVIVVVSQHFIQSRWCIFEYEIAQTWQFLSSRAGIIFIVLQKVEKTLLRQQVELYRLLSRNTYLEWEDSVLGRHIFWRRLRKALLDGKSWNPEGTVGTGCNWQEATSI

SMILES: CCCC1CCC([C@@H]2CCC3=CC(=O)CC(=O)C3C2)CC1 (stereo partly specified)
IC50 (Toll-like receptor 4): 0.73 µM

SMILES: CN(Cc1cnc2nc(N)nc(N)c2n1)c1ccc(C(=O)N[C@@H](CCC(=O)O)C(=O)O)cc1 [METHOTREXATE]
Activity (Synovial cell [1]): Active
IC50 (Toll-like receptor 4): 1.04 µM
inhibition (Synovial cell [2]): Active
Activity (Synovial cell [3]): Active
Activity (Synovial cell [4]): Active
Activity (Synovial cell [5]): Active
Activity (Synovial cell [6]): Active
Activity (Synovial cell [7]): Active
Activity (Synovial cell [8]): Active
Activity (Synovial cell [9]): Active
Activity (Synovial cell [10]): Active
inhibition (Synovial cell [11]): Active

SMILES: CC(C)[C@H]1CCC2C(=O)CCC(=O)C=C21 (stereo partly specified)
IC50 (Toll-like receptor 4): 2.82 µM

SMILES: O=C1C=C2CCCCC2C(=O)CC1 (stereo unspecified)
IC50 (Toll-like receptor 4): 1.85 µM

SMILES: O=C1C=C2CC[C@@H](NC(=O)OCc3ccccc3)CC2C(=O)C1 (stereo partly specified)
Activity (Synovial cell [1]): Active
IC50 (Toll-like receptor 4): 0.56 µM
inhibition (Synovial cell [2]): Active
Activity (Synovial cell [3]): Active
Activity (Synovial cell [4]): Active
Activity (Synovial cell [5]): Active
Activity (Synovial cell [6]): Active
Activity (Synovial cell [7]): Active
Activity (Synovial cell [8]): Active
Activity (Synovial cell [9]): Active
Activity (Synovial cell [10]): Active
inhibition (Synovial cell [11]): Active

Continued by falling IC50 (Toll-like receptor 4), values first:

IC50 (Toll-like receptor 4): 2.71 µM
SMILES: O=C1C=C2C(CC[C@@H]2Cl)C(=O)C1 (stereo partly specified)

IC50 (Toll-like receptor 4): 2.66 µM
SMILES: C[C@H]1CCC2C(=O)CCC(=O)C=C2C1 (stereo partly specified)

IC50 (Toll-like receptor 4): 2.53 µM
SMILES: CC(C)[C@H]1CCC2C(=O)CC(=O)C=C21 (stereo partly specified)

IC50 (Toll-like receptor 4): 1.54 µM
SMILES: CCOC(=O)[C@H]1CCCC2C(=O)CC(=O)C=C21 (stereo partly specified)

— ChEMBL document CHEMBL4825734, “Synthesis, activity and mechanism for double-ring conjugated enones” (Bioorg Med Chem Lett, 2021)
